{
  "source": "patent US6960342B2",
  "about": "“Method for inhibiting pathogenic fungi in plants using Bacillus amyloliquefaciens” (National Taiwan University, priority 2002, dated 2005)",
  "type_in_all_cases": "in vivo",
  "key": {"Botrytis elliptica [1]": {"tested_on": "Botrytis elliptica", "assay": "B190 formulations on Botrytis elliptica infected lilies in field", "conditions": "B190 1 × 10^5 cfu/ml, 3 applications (10 days/interval), fourteen days after the last application, scale 0 to 4", "experimental": "Bacillus amyloliquefaciens B190 was cultured in a flask containing 1% rice chaff and 99% de-ion water. Then the flask was positioned on a rotary shaker located in an incubator. B190 was incubated at an ambient temperature of 25±5° C. for 3 days. Thereafter, the cultured B190 was collected by means of centrifugation (3000 rpm/10 minutes; Tomy CM-60 RN, Seiko, Japan). The pellet mixed with 1% (w/v) kaolin was used as a wettable powder (WP). The pellet mixed with 0.025% (v/v) heavy mineral oil and 0.1% Tween 80 was served as an emulsion (E).\nDifferent chemicals or adjuvants were added to the wettable powder, emulsion or B190-containing filtrate as described above for investigating their inhibitory ability on lilies in the field. These chemicals include 0.025% Ca(OH)2, 0.05% Na2CO3, 0.025% NH4NO3 and 0.025% K2HPO4. The adjuvants comprise 0.1% Tween 80 and 0.05% mineral oil.\nUnformulated B. amyloliquefaciens B190 and 100 p.p.m. flusilazole were used as controls. In addition, uninoculated and inoculated lily plants with B. elliptica were also included as controls. Applications of these treatments were carried out when flowering tissues reached 100 to 120 mm in diameter. Treatments were applied three times with intervals of 10 days. […] After inoculating B. elliptica for ten days, disease severity was scored as described above."}, "Botrytis elliptica [2]": {"tested_on": "Botrytis elliptica", "assay": "Field trials, control of lily gray mold; disease severity", "conditions": "antagonist 1 × 10^5 cfu/ml or 100 ppm flusilazole, three applications, recorded 14 days after the last application, scale 0 to 4", "experimental": "Lily fields in Taipei and I-Lan counties were selected for this experiment. Suspensions of the B190 and Botrytis elliptica were adjusted to about 1×10^5 cfu/ml and 1×10^3 conidia/ml, respectively, before application. 100 ppm of flusilazole (37% Emulsion, Du Pont, USA) was used for comparison. After spraying B190 or flusilazole by sprayer (MS sprayer, Taiwan), 5 ml of the spore suspension of Botrytis elliptica was sprayed onto each 100-day-old lily plant. A total of three sprays at 10-day intervals were applied. Each treatment consisted of 100 plants with 4 replicates. Every replicate was planted on a plot, which was 30 m long and 2 m wide. All the treatments were arranged based on randomized complete block design. Two weeks after the last spray, disease severity was assessed and analyzed as above-mentioned."}, "Botrytis elliptica [3]": {"tested_on": "Botrytis elliptica", "assay": "B190 formulations on Botrytis elliptica infected lilies in greenhouse", "conditions": "B190 […] cfu/ml, 3 applications (10 days/interval), flusilazole 100 p.p.m., recorded ten days after the last application, scale 0 to 4", "experimental": "Bacillus amyloliquefaciens B190 was cultured in a flask containing 1% rice chaff and 99% de-ion water. The flask was then positioned on a rotary shaker located in an incubator. B190 was incubated at 25±5° C. for 3 days. Thereafter, the B190-containing solution was filtered for application in the following experiments.\nDifferent chemicals or adjuvants were added to the B190-containing filtrate for investigating their inhibitive capability on Botrytis elliptica infected lilies in greenhouse. The chemicals include 0.025% Ca(OH)2, 0.05% Na2CO3, 0.025% NH4NO3 and 0.025% K2HPO4. The adjuvants comprise 0.1% Tween 80 and 0.05% mineral oil.\nUnformulated B. amyloliquefaciens B190 and 100 p.p.m. flusilazole were used as controls. In addition, uninoculated and inoculated lily plants with B. elliptica were also included as controls. Applications of these treatments were carried out when flowering tissues reached 30 to 50 mm in diameter. Treatments were applied three times with intervals of 10 days. Thereafter, 5 ml of B. elliptica spore suspension (1×10^3 conidia/ml) was inoculated on lily plants except the uninoculated control. Each different treatment had four replicates, and 5 lily plants were applied in every replicate. All treatments were arranged in a randomized complete block design. After inoculating B. elliptica for ten days, disease severity was scored as described above."}},
  "data": [
    {"compound": "C[Si](Cn1cncn1)(c1ccc(F)cc1)c1ccc(F)cc1", "note": "[Flusilazole, flusilazole]", "values": [
      {"measurement": "Disease severity", "setting": "Botrytis elliptica [1]; I: two trials in I-Lan county", "result": 0.23, "unit": "cd"},
      {"measurement": "Disease severity", "setting": "Botrytis elliptica [1]; II: two trials in NTU experimental farm", "result": 0.39, "unit": "bc"},
      {"measurement": "Disease severity", "setting": "Botrytis elliptica [2]; I-Lan", "result": 0.80, "unit": "b"},
      {"measurement": "Disease severity", "setting": "Botrytis elliptica [2]; Taipei", "result": 0.31, "unit": "bc"},
      {"measurement": "Disease severity", "setting": "Botrytis elliptica [3]", "result": 0.32, "unit": "ef"}
    ]}
  ]
}
